This note sets out measurements from patent US11319299B2, “Substituted carboxamides as inhibitors of WDR5 protein-protein binding” (PROPELLON THERAPEUTICS INC., priority 2016, dated 2022).

This experiment deals with WDR5 (Homo sapiens (Human), UniProt P61964). Briefly: Surface Plasmon Resonance (SPR) assay, KD and residence time. The experiment is classed as binding. The note with it: surface plasmon resonance (SPR); read-out: WDR5 binding affinity (KD).

As for `CC(C)N1CCN(c2ncc(-c3cc(NC(=O)c4cn(C)c(=O)cc4C(F)(F)F)c(N4C[C@@H](C)N(C)[C@@H](C)C4)cc3F)cn2)CC1` [Example 661, N-[4-fluoro-5-[2-(4-propan-2-ylpiperazin-1-yl)pyrimidin-5-yl]-2-[(3R,5S)-3,4,5-trimethylpiperazin-1-yl]phenyl]-1-methyl-6-oxo-4-(trifluoromethyl)pyridine-3-carboxamide], the Kd is 3.23 nM.

Consider `C[C@@H]1CN(c2cc(F)c(-c3cnc(N4CCOC(C)(C)C4)nc3)cc2NC(=O)c2cn(C)c(=O)cc2C(F)(F)F)C[C@H](C)N1C` [Example 662, N-[5-[2-(2,2-dimethylmorpholin-4-yl)pyrimidin-5-yl]-4-fluoro-2-[(3R,5S)-3,4,5-trimethylpiperazin-1-yl]phenyl]-1-methyl-6-oxo-4-(trifluoromethyl)pyridine-3-carboxamide], for which the Kd turned out to be 2.29 nM.

With `C[C@@H]1CN(c2cc(F)c(-c3ccc(C(=O)NC(C)(C)CC(C)(C)C)c(F)c3F)cc2NC(=O)c2ccc(F)cc2C(F)(F)F)C[C@H](C)N1C` [Example 665, 2,3-difluoro-4-[2-fluoro-5-[[4-fluoro-2-(trifluoromethyl)benzoyl]amino]-4-[(3R,5S)-3,4,5-trimethylpiperazin-1-yl]phenyl]-N-(2,4,4-trimethylpentan-2-yl)benzamide], the Kd came out at 151 nM.

For `C[C@@H]1CN(c2cc(F)c(-c3ccc(C(N)=O)c(F)c3F)cc2NC(=O)c2ccc(F)cc2C(F)(F)F)C[C@H](C)N1C` [Example 667, 2,3-difluoro-4-[2-fluoro-5-[[4-fluoro-2-(trifluoromethyl)benzoyl]amino]-4-[(3R,5S)-3,4,5-trimethylpiperazin-1-yl]phenyl]benzamide], the Kd is 9.65 nM.

Regarding `C[C@@H]1CN(c2cc(F)c(-c3ccc(C(=O)NC(C)(C)CC(C)(C)C)c(F)c3F)cc2NC(=O)c2c[nH]c(=O)cc2C(F)(F)F)C[C@H](C)N1C` [Example 669, N-[5-[2,3-difluoro-4-(2,4,4-trimethylpentan-2-ylcarbamoyl)phenyl]-4-fluoro-2-[(3R,5S)-3,4,5-trimethylpiperazin-1-yl]phenyl]-6-oxo-4-(trifluoromethyl)-1H-pyridine-3-carboxamide], the equilibrium dissociation constant (Kd) was 9.71 nM.

As for `C[C@@H]1CN(c2cc(F)c(-c3ccc(C(N)=O)c(F)c3F)cc2NC(=O)c2c[nH]c(=O)cc2C(F)(F)F)C[C@H](C)N1C` [Example 670, N-[5-(4-carbamoyl-2,3-difluorophenyl)-4-fluoro-2-[(3R,5S)-3,4,5-trimethylpiperazin-1-yl]phenyl]-6-oxo-4-(trifluoromethyl)-1H-pyridine-3-carboxamide], the dissociation constant Kd came out at 3.85 nM.

As to `CC(C)OC(=O)N1CCC=C(c2cc(NC(=O)c3c[nH]c(=O)cc3C(F)(F)F)c(N3C[C@@H](C)N(C)[C@@H](C)C3)cc2F)CC1` [Example 674, Propan-2-yl 4-[2-fluoro-5-[[6-oxo-4-(trifluoromethyl)-1H-pyridine-3-carbonyl]amino]-4-[(3R,5S)-3,4,5-trimethylpiperazin-1-yl]phenyl]-2,3,6,7-tetrahydroazepine-1-carboxylate], the Kd amounted to 4.94 nM.

On to `C[C@@H]1CN(c2cc(F)c(-c3ccc4c(c3)ncn4C)cc2NC(=O)c2c[nH]c(=O)cc2C(F)(F)F)C[C@H](C)N1C` [Example 675, N-[4-fluoro-5-(1-methylbenzimidazol-5-yl)-2-[(3R,5S)-3,4,5-trimethylpiperazin-1-yl]phenyl]-6-oxo-4-(trifluoromethyl)-1H-pyridine-3-carboxamide], for which the Kd turned out to be 1.97 nM.

For `C[C@@H]1CN(c2cc(F)c(-c3ccc4ncn(C)c4c3)cc2NC(=O)c2c[nH]c(=O)cc2C(F)(F)F)C[C@H](C)N1C` [Example 676, N-[4-fluoro-5-(3-methylbenzimidazol-5-yl)-2-[(3R,5S)-3,4,5-trimethylpiperazin-1-yl]phenyl]-6-oxo-4-(trifluoromethyl)-1H-pyridine-3-carboxamide], the Kd stood at 4.39 nM.

`C[C@@H]1CN(c2cc(F)c(-c3cccc4scnc34)cc2NC(=O)c2c[nH]c(=O)cc2C(F)(F)F)C[C@H](C)N1C` [Example 677, N-[5-(1,3-benzothiazol-4-yl)-4-fluoro-2-[(3R,5S)-3,4,5-trimethylpiperazin-1-yl]phenyl]-6-oxo-4-(trifluoromethyl)-1H-pyridine-3-carboxamide]: the Kd stood at 5.29 nM.

For the molecule `C[C@@H]1CN(c2cc(F)c(-c3ccc4scnc4c3)cc2NC(=O)c2c[nH]c(=O)cc2C(F)(F)F)C[C@H](C)N1C` [Example 678, N-[5-(1,3-benzothiazol-5-yl)-4-fluoro-2-[(3R,5S)-3,4,5-trimethylpiperazin-1-yl]phenyl]-6-oxo-4-(trifluoromethyl)-1H-pyridine-3-carboxamide], the equilibrium dissociation constant (Kd) came out at 3.26 nM.

On to `C[C@@H]1CN(c2cc(F)c(-c3ccc4ncsc4c3)cc2NC(=O)c2c[nH]c(=O)cc2C(F)(F)F)C[C@H](C)N1C` [Example 679, N-[5-(1,3-benzothiazol-6-yl)-4-fluoro-2-[(3R,5S)-3,4,5-trimethylpiperazin-1-yl]phenyl]-6-oxo-4-(trifluoromethyl)-1H-pyridine-3-carboxamide], for which the dissociation constant (Kd) worked out at 2.97 nM.

On to `C[C@@H]1CN(c2cc(F)c(-c3ccc4c(c3)ncn4C)cc2NC(=O)c2cn(C)c(=O)cc2C(F)F)C[C@H](C)N1C` [Example 680, 4-(difluoromethyl)-N-[4-fluoro-5-(1-methylbenzimidazol-5-yl)-2-[(3R,5S)-3,4,5-trimethylpiperazin-1-yl]phenyl]-1-methyl-6-oxopyridine-3-carboxamide], for which the equilibrium dissociation constant (Kd) is 58.2 nM.

In the case of `C[C@@H]1CN(c2cc(F)c(-c3ccc4ncn(C)c4c3)cc2NC(=O)c2cn(C)c(=O)cc2C(F)F)C[C@H](C)N1C` [Example 681, 4-(difluoromethyl)-N-[4-fluoro-5-(3-methylbenzimidazol-5-yl)-2-[(3R,5S)-3,4,5-trimethylpiperazin-1-yl]phenyl]-1-methyl-6-oxopyridine-3-carboxamide], the dissociation constant (Kd) was found to be 39.3 nM.

For `C[C@@H]1CN(c2cc(F)c(-c3cccc4scnc34)cc2NC(=O)c2cn(C)c(=O)cc2C(F)F)C[C@H](C)N1C` [Example 682, N-[5-(1,3-benzothiazol-4-yl)-4-fluoro-2-[(3R,5S)-3,4,5-trimethylpiperazin-1-yl]phenyl]-4-(difluoromethyl)-1-methyl-6-oxopyridine-3-carboxamide], the dissociation constant (Kd) amounted to 20.4 nM.

Regarding `C[C@@H]1CN(c2cc(F)c(-c3ccc4scnc4c3)cc2NC(=O)c2cn(C)c(=O)cc2C(F)F)C[C@H](C)N1C` [Example 683, N-[5-(1,3-benzothiazol-5-yl)-4-fluoro-2-[(3R,5S)-3,4,5-trimethylpiperazin-1-yl]phenyl]-4-(difluoromethyl)-1-methyl-6-oxopyridine-3-carboxamide], the Kd came to 12.3 nM.

`C[C@@H]1CN(c2cc(F)c(-c3ccc4ncsc4c3)cc2NC(=O)c2cn(C)c(=O)cc2C(F)F)C[C@H](C)N1C` [Example 684, N-[5-(1,3-benzothiazol-6-yl)-4-fluoro-2-[(3R,5S)-3,4,5-trimethylpiperazin-1-yl]phenyl]-4-(difluoromethyl)-1-methyl-6-oxopyridine-3-carboxamide]: the Kd was determined as 7.82 nM.

Turning to `C[C@@H]1CN(c2cc(F)c(C3=CCN(c4ncc(C#N)s4)CC3)cc2NC(=O)c2c[nH]c(=O)cc2C(F)F)C[C@H](C)N1C` [Example 685, N-[5-[1-(5-cyano-1,3-thiazol-2-yl)-3,6-dihydro-2H-pyridin-4-yl]-4-fluoro-2-[(3R,5S)-3,4,5-trimethylpiperazin-1-yl]phenyl]-4-(difluoromethyl)-6-oxo-1H-pyridine-3-carboxamide], the Kd amounted to 2.23 nM.

Turning to `C[C@@H]1CN(c2cc(F)c(C3=CCCN(c4ncc(C#N)s4)C3)cc2NC(=O)c2c[nH]c(=O)cc2C(F)F)C[C@H](C)N1C` [Example 687, N-[5-[1-(5-cyano-1,3-thiazol-2-yl)-3,6-dihydro-2H-pyridin-5-yl]-4-fluoro-2-[(3R,5S)-3,4,5-trimethylpiperazin-1-yl]phenyl]-4-(difluoromethyl)-6-oxo-1H-pyridine-3-carboxamide], the Kd is 1.84 nM.

In the case of `C[C@@H]1CN(c2cc(F)c(-c3ccnc(N4CCOCC4)n3)cc2NC(=O)c2c[nH]c(=O)cc2C(F)F)C[C@H](C)N1C` [Example 692, 4-(difluoromethyl)-N-[4-fluoro-5-(2-morpholin-4-ylpyrimidin-4-yl)-2-[(3R,5S)-3,4,5-trimethylpiperazin-1-yl]phenyl]-6-oxo-1H-pyridine-3-carboxamide], the Kd stood at 2.4 nM.

With `C[C@@H]1CN(c2cc(F)c(-c3ccnc(N4CCOCC4)n3)cc2NC(=O)c2cn(C)c(=O)cc2C(F)(F)F)C[C@H](C)N1C` [Example 693, N-[4-fluoro-5-(2-morpholin-4-ylpyrimidin-4-yl)-2-[(3R,5S)-3,4,5-trimethylpiperazin-1-yl]phenyl]-1-methyl-6-oxo-4-(trifluoromethyl)pyridine-3-carboxamide], the equilibrium dissociation constant (Kd) stood at 4.79 nM.

With `C[C@@H]1CN(c2cc(F)c(-c3ccnc(OC4CCOCC4)n3)cc2NC(=O)c2c[nH]c(=O)cc2C(F)(F)F)C[C@H](C)N1C` [Example 695, N-[4-fluoro-5-[2-(oxan-4-yloxy)pyrimidin-4-yl]-2-[(3R,5S)-3,4,5-trimethylpiperazin-1-yl]phenyl]-6-oxo-4-(trifluoromethyl)-1H-pyridine-3-carboxamide], the Kd was found to be 2.53 nM.

On to `C[C@@H]1CN(c2cc(F)c(C3=CCN(c4ncc(C#N)s4)CC3)cc2NC(=O)c2c[nH]c(=O)cc2C(F)(F)F)C[C@H](C)N1C` [Example 696, N-[5-[1-(5-cyano-1,3-thiazol-2-yl)-3,6-dihydro-2H-pyridin-4-yl]-4-fluoro-2-[(3R,5S)-3,4,5-trimethylpiperazin-1-yl]phenyl]-6-oxo-4-(trifluoromethyl)-1H-pyridine-3-carboxamide], for which the dissociation constant (Kd) was 1.31 nM.

In the case of `C[C@@H]1CN(c2cc(F)c(C3=CCCN(C(=O)OC4(C)CCC4)CC3)cc2NC(=O)c2c[nH]c(=O)cc2C(F)(F)F)C[C@H](C)N1C` [Example 699, (1-methylcyclobutyl) 4-[2-fluoro-5-[[6-oxo-4-(trifluoromethyl)-1H-pyridine-3-carbonyl]amino]-4-[(3R,5S)-3,4,5-trimethylpiperazin-1-yl]phenyl]-2,3,6,7-tetrahydroazepine-1-carboxylate], the Kd worked out at 3.7 nM.
